# Legend:
# Assay type in all cases: physicochemical
# [1] = Particle size by Helos/Rodos laser diffraction (Example 1); conditions: geometric projection-equivalent volume mean diameter
# Protocol: PSD measurements were performed using firstly, AEROSIZER® time-of-flight instrument equipped with AERO-[…]® (TSI Inc., Minneapolis. USA) and secondly, laser diffraction sensor Helos with dry-powder air-dispersion system Rodos (Sympatec GmbH. Germany). The volume mean particle diameter, VMD, was obtained for both instruments using software options. In the general case of non-spherical particles, these instruments cannot provide the exact value of VMD, however, the time-of-flight technique gives an aerodynamic-equivalent particle diameter, whereas the laser diffraction method provides the geometric projection-equivalent diameter. These diameters afford the complementary information on PSD and therefore can be used for comparative size analysis.
# [2] = Dynamic vapor sorption (Example 8); conditions: 25° C.
# Protocol: The moisture sorption isotherm of each powder at 25° C. was measured using a dynamic vapour sorption (DVS) instrument made by Surface Measurement Systems, UK. This instrument gravimetrically measures uptake and loss of water vapor on a substrate by means of a recording microbalance with a resolution of ±0.1 μg. In the first step of the experimental run, the sample was dried at 25° C. and 0% relative humidity (RH) for at least 600 minutes to bring the sample to near zero wt % H2O. Then, the instrument was programmed to increase the RH in steps of 5% RH from 0% to 90% RH and decrease the RH in steps of 10% RH from 90% to 0% RH. A criterion of dm/dt=0.005%/min was chosen for the system to hold at each RH step before proceeding to the next RH step. Sample masses between 30 and 100 mg were used in this study. The change in mass (%) is expressed in terms of g H2O per 100 g of dry substance.
# [3] = AEROFLOW powder avalanching (Example 8); conditions: listed as TBS 2
# Protocol: An AEROFLOW™ powder avalanching apparatus (Amherst Process Instruments, API, Amherst, USA) was employed to analyze the dynamic avalanching behaviour of micronized and SC processed TBS samples. The AEROFLOW™ apparatus consists of a transparent rotating drum with a port at the front. A white light source is positioned in front of the drum and a masked array of photocells is behind the drum. To measure avalanching, 50 ml of the drug powder was added to the drum, which is about 15% of its total volume to ensure good powder mixing during the operation. As the drum rotates, the powder bed is carried upwards until an unstable state is reached and an avalanche occurs.
# The time between successive avalanches was recorded by the projection of the light beam through the drum onto the photocell array. The photocells generated a voltage dependent on the amount of light falling on the cells and the area of unmasked photocells shielded from the light source by the powder. The voltage output (transmitted light intensity) was recorded by a computer, which translates the output as powder movement using a technique disclosed in B. H. Kaye. Characterizing the flowability of a powder using the concepts of fractal geometry and chaos theory, Part. Part. Charact. 14: 53-66 (1997). Each TBS sample was tested in duplicate and mean avalanche time and irregularity (scatter) of avalanches were recorded.
# [4] = AEROSIZER time-of-flight of TBS (Example 8); conditions: listed as TBS 2
# Protocol: The TBS samples were also analysed using an AEROSIZER™ (Amherst Process Instruments, Amherst, Mass., USA), provided with pulse jet disperser, the AERODISPERSER™, to introduce the powders to the instrument. The measurement range of the AEROSIZER™ is nominally from 0.2 to 200 μm of aerodynamic diameter with the standard 750 μm diameter tapered nozzle. The micronized and SEDS™ TBS samples were analyzed for 300 seconds in triplicate using normal deagglomeration conditions, feed rate (5000 particles per second) and medium shear force (0.5 psi).
# [5] = Laser diffraction HELOS/RODOS of TBS (Example 8); conditions: 2 bar, listed as TBS 2
# Protocol: A small amount of TBS powder was analysed using a laser diffraction RODOS/VIBRI dispersing system (HELOS/RODOS, Sympatec GmbH, Clausthal-Zellerfeld, Germany). The instrument consisted of a laser sensor HELOS and a RODOS dry-powder air-dispersion system (Sympatec GmbH, Clausthal-Zellerfeld, Germany). Different measurement ranges of the laser sensor were provided by interchangeable objectives R1 (0.1-35 μm) and R2 (0.25-87.5 μm). The rate of powder dispersion was controlled by adjusting the pressure of the compressed air flow. A pressure of 2 bar was sufficient to achieve deagglomeration of primary particles without attrition.
smiles,measurement,setting,value
"CC(C)(C)NCC(O)c1cc(O)cc(O)c1 (centres unmarked) [TSB SEDS, terbutaline sulphate]",VMD (μm) (laser diffraction),[1],3.43 μm
same,moisture uptake compared with micronised sample,[2],slightly higher moisture uptake than the micronised sample
same,Irregularity of flow,[3]; 100 sec/rev,1.17 s
same,Mean time to avalanche,[3]; 100 sec/rev,3.30 s
same,Irregularity of flow,[3]; 145 sec/rev,2.12 s
same,Mean time to avalanche,[3]; 145 sec/rev,4.91 s
same,"Aerosizer D4, 3 (μm)",[4],3.44 μm
same,"Sympatec D4, 3 (μm)",[5],3.43 μm
